# Patent US6410011B1, “Gene therapy for restenosis using an adenoviral vector” (priority 1994, dated 2002)
# What was measured:
# [1] = patients treated for viral infection with a non-toxic dose; cited from earlier work
# [2] = tested on: rabbit aorta VSMC; assay: Cytotoxic activity of the Ad-RSV-TK/ganciclovir combination on smooth muscle cells in culture, by cell counting; type: cell-based; settings: ganciclovir alone or Ad-RSV-TK alone
# Method: The activity of the adenovirus containing the TK gene, prepared in Example 1, was checked on in vitro models of smooth muscle cells. To this end, smooth muscle cells isolated from rat and rabbit aorta were infected with the recombinant adenovirus Ad-RSV-tk and incubated in the presence of ganciclovir. The effect of the Ad-RSV-tk/ganciclovir combination on cell viability is then confirmed by the colorimetric test employing MTT, 3-(4,5-dimethylthiazol-2-yl)-2,5-diphenyl-tetrazolium bromide, according to the technique described by Mosman (J. Immunol. Meth. 65 (1983) 55), or more accurately by cell counting. Briefly, vascular smooth muscle cells (VSMC) are set up in culture by enzymatic digestion of NZW rabbit aorta according to a method adapted from Chamley et al. (Cell Tissue Res. 177: 503-522 1977). The cells are maintained in the presence of 20% of foetal calf serum and used for all the tests (see below) before the tenth passage. […]
# In order to measure the cytotoxic activity of the Ad-RSV-TK/ganciclovir combination, rabbit aorta VSMC are incubated in the presence of the adenovirus diluted in culture medium (DMEM, 0.5% FCS). […] Four days after the addition of ganciclovir, the cells are counted (100% cell viability corresponding to cells not transduced with Ad-RSV-TK and not treated with ganciclovir).
structure (smiles),measurement,setting,value
Nc1nc(O)c2ncn(COC(CO)CO)c2n1 [ganciclovir],plasma concentrations,[1],above 15 μM
same,cell death with a single agent,[2],neither simple treatment with ganciclovir nor transduction with Ad-RSV-TK per se is associated with cell death
